Test results: PMC8277899, “A novel RyR1-selective inhibitor prevents and rescues sudden death in mouse models of malignant hyperthermia and heat stroke” (Nature Communications, 2021)
Converted amounts (≈) assume the structure as drawn. “And” between values parts separate entries of the source, which are not always exact repeats. Identical values can stand only once. Like-named read-outs stand apart in the source and are kept apart here.

Columns and labels:
[1] = Pharmacokinetics after i.p. administration in mice; assay type: in vivo, mouse; design: Cpd1 concentration (sheet Fig S5a) / Cpd1 concentration (sheet Fig S5b): unit not given here; conditions: for concentration at 10 min / concentration at 30 min / concentration at 60 min / Cmax / half-life / concentration at 5 min: C57BL/6J, mouse, plasma; for concentration at 10 min / concentration at 30 min / concentration at 60 min / concentration at 5 min: intraperitoneal; for Cmax / half-life: ip; for Cpd1 concentration (sheet Fig S5b) / Cpd1 concentration (sheet Fig S5a): i.p., single mice
Procedure: Cpd1 sodium salt (3 mg/kg and 10 mg/kg) dissolved in normal saline was administered i.p. to WT C57BL/6 J mice (10 week-old). Serial tail bled blood samples (∼20 μL) were collected using heparinized tip at 5, 10, 30, and 60 min after administration. Aliquots (5 μL) of plasma samples obtained from each blood were treated with 50 μL of acetonitrile and organic layer were injected onto LC–MS/MS system (Waters Corp., Milford, MA, USA). The pharmacokinetic parameters included maximum concentration (Cmax), elimination half-life (T½).

[2] = tested on: FDB muscle fibers from R163C mice; assay: In vitro [Ca2+]i by Ca2+-selective microelectrode in FDB fibers from R163C mice; assay type: cell-based, mouse; conditions: 0-5 µM
Procedure: (§1) WT and mutant mice (R2509C, 8- to 20-week old; R163C, 12- to 16-week old, and G2435R, 12- to 16-week old) were euthanized and flexor digitorum brevis (FDB) muscles were dissected and incubated with 2 mg/mL collagenase (Worthington Biochemical Co., NJ, USA) in the HEPES-Krebs solution containing 2 mg/mL bovine serum albumin for 2–3 h at 37 °C. Following incubation, single cells were separated by gentle trituration in collagenase-free HEPES-Krebs solution. Isolated single FDB cells were seeded on a laminin-coated cover slip of the 35 mm glass-bottom dish or on 96 well plate coated with Cultrex basement membrane matrix (Trevigen, Minneapolis, USA).
Ca^2+ ion specific microelectrode recordings were performed as follows[38],[50]. For in vivo measurements, WT and heterozygous R163C mice (12- to 16-week old) were anesthetized by i.p. injection of 100 mg/kg ketamine and 5 mg/kg xylazine and placed on a 37 °C heating pad and their temperature was monitored. The vastus lateralis was exposed surgically after which its muscle fibers were impaled with double-barreled Ca^2+-selective microelectrode, and the potentials were recorded via a high-impedance amplifier (WPI Duo 773 electrometer; WPI, Sarasota, FL, USA). […] Muscle fibers were impaled with the microelectrodes as above and [Ca^2+]i was determined in the presence of varying (0–5 µM) concentrations of Cpd1.

[3] = tested on: G2435R FDB fibers; assay: Mn2+ quench assay in FDB fibers from G2435R mice; assay type: cell-based, mouse; conditions: 10 µM
Procedure: as §1
Assays were carried out as follows[38]: 5 µM of fura2-AM dye (Thermo Fisher Scientific) dissolved in mammalian Ringer solution (133 mM NaCl, 5 mM KCl, 1 mM MgSO4, 25 mM HEPES, 5.5 mM glucose, 2 mM CaCl2, pH 7.4) was loaded into dissociated WT and homozygous G2435R FDB fibers in 96 well plates for 30 min at 37 °C, 5% CO2. […] Fura-2 was illuminated at its isosbestic wavelength (360 nm) with the X-Cite 120 metal halide light source (Exfo, Ontario, Canada) and fluorescence emission at 510 nm was recorded using a 10 ×0.3na objective. […] The fluorescence signals were plotted as fluorescence arbitrary units (f.a.u.) over time. […]

[4] = tested on: RyR1 channel; design: method as in PMID 31299492; conditions: HEK293 cell-based assay; read-out: IC50 for inhibiting the RyR1 channel; cited from earlier work
[5] = Thermodynamic solubility in solutions for injection

CCCCCCCCn1cc(C(=O)O)c(=O)c2cc3c(cc21)OCO3 [Cpd1, 6,7-(methylenedioxy)-1-octyl-4-quinolone-3-carboxylic acid]
plasma concentration ([1]; 3 mg/kg i.p., 10 min): 750 ng/mL and 510 ng/mL and 710 ng/mL and 660 ng/mL and 760 ng/mL | plasma concentration ([1]; 3 mg/kg i.p., 30 min): 150 ng/mL and 120 ng/mL and 140 ng/mL and 190 ng/mL | plasma concentration ([1]; 10 mg/kg i.p., 10 min): 2950 ng/mL and 3200 ng/mL and 1730 ng/mL and 2280 ng/mL and 1660 ng/mL | plasma concentration ([1]; 10 mg/kg i.p., 60 min): 50 ng/mL and 60 ng/mL | concentration at 10 min ([1]; 3 mg/kg, 3 mg/kg i.p., 10 min): 440 ng/mL | concentration at 30 min ([1]; 3 mg/kg, 3 mg/kg i.p., 30 min): 110 ng/mL | concentration at 10 min ([1]; 10 mg/kg, 10 mg/kg i.p., 10 min): 3080 ng/mL | concentration at 60 min ([1]; 10 mg/kg, 10 mg/kg i.p., 60 min): 40 ng/mL | Cmax ([1]; 3 mg/kg i.p.): 1500 ± 200 ng/mL | half-life ([1]; 3 mg/kg i.p., read-out: t1/2): 8.4 ± 1.4 min | Cmax ([1]; 10 mg/kg i.p.): 5400 ± 600 ng/mL | half-life ([1]; 10 mg/kg i.p., read-out: t1/2): 8.6 ± 1.6 min | half-life ([1]; both the 3 mg/kg and 10 mg/kg dose i.p., read-out: t1/2 (plasma half-life)): ~8 min | Cmax ([1]; female mice, 3 mg/kg i.p.): 1600 ± 100 ng/mL | half-life ([1]; female mice, 3 mg/kg i.p., read-out: t1/2): 8.6 ± 0.8 min | Cmax ([1]; female mice, 10 mg/kg i.p.): 6000 ± 400 ng/mL | half-life ([1]; female mice, 10 mg/kg i.p., read-out: t1/2): 9.3 ± 1 min | Cmax ([1]; female, 8-times injection of 1 mg/kg at 10 min intervals): 150 ± 110 ng/mL | half-life ([1]; female, 8-times injection of 1 mg/kg at 10 min intervals, read-out: t1/2): 14.8 ± 2.1 min | Cmax ([1]; male mice, 3 mg/kg i.p.): 1300 ± 400 ng/mL | half-life ([1]; male mice, 3 mg/kg i.p., read-out: t1/2): 8.3 ± 2.7 min | Cmax ([1]; male mice, 10 mg/kg i.p.): 5100 ± 1200 ng/mL | half-life ([1]; male mice, 10 mg/kg i.p., read-out: t1/2): 7.4 ± 2.5 min | Cmax ([1]; male, 8-times injection of 1 mg/kg at 10 min intervals): 670 ± 110 ng/mL | half-life ([1]; male, 8-times injection of 1 mg/kg at 10 min intervals, read-out: t1/2): 9.6 ± 2.7 min | plasma concentration ([1]; female, 8-times injection of 1 mg/kg at 10 min intervals, 5 min, 1 mg/kg): 110 ng/mL and 120 ng/mL | plasma concentration ([1]; female, 8-times injection of 1 mg/kg at 10 min intervals, 30 min, 1 mg/kg): 30 ng/mL | plasma concentration ([1]; female, 8-times injection of 1 mg/kg at 10 min intervals, 60 min, 1 mg/kg): 20 ng/mL | concentration at 5 min ([1]; female, 1 mg/kg, 8-times injection of 1 mg/kg at 10 min intervals, 5 min): 140 ng/mL | concentration at 10 min ([1]; female, 1 mg/kg, 8-times injection of 1 mg/kg at 10 min intervals, 10 min): 120 ng/mL | concentration at 30 min ([1]; female, 1 mg/kg, 8-times injection of 1 mg/kg at 10 min intervals, 30 min): 40 ng/mL | concentration at 60 min ([1]; female, 1 mg/kg, 8-times injection of 1 mg/kg at 10 min intervals, 60 min): 10 ng/mL | plasma concentration ([1]; male, 8-times injection of 1 mg/kg at 10 min intervals, 60 min, 1 mg/kg): 20 ng/mL | concentration at 5 min ([1]; male, 1 mg/kg, 8-times injection of 1 mg/kg at 10 min intervals, 5 min): 430 ng/mL | concentration at 60 min ([1]; male, 1 mg/kg, 8-times injection of 1 mg/kg at 10 min intervals, 60 min): 10 ng/mL | Cpd1 concentration (sheet Fig S5b) ([1]; time 5, dose head 3): 1.2 and 1.12 and 0.98 | Cpd1 concentration (sheet Fig S5b) ([1]; time 5, dose head 10): 4.45 and 3.8 and 3.72 | Cpd1 concentration (sheet Fig S5a) ([1]; time 10, dose head 3): 0.44 and 0.75 and 0.51 | Cpd1 concentration (sheet Fig S5b) ([1]; time 10, dose head 3): 0.71 and 0.66 and 0.76 | Cpd1 concentration (sheet Fig S5a) ([1]; time 10, dose head 10): 1.73 and 2.28 and 1.66 | Cpd1 concentration (sheet Fig S5b) ([1]; time 10, dose head 10): 3.08 and 2.95 and 3.2 | Cpd1 concentration (sheet Fig S5a) ([1]; time 30, dose head 3): 0.11 and 0.15 and 0.12 | Cpd1 concentration (sheet Fig S5b) ([1]; time 30, dose head 3): 0.14 and 0.19 | Cpd1 concentration (sheet Fig S5b) ([1]; time 30, dose head 10): 0.39 and 0.45 and 0.41 | Cpd1 concentration (sheet Fig S5b) ([1]; time 60, dose head 3): 0.03 and 0.02 | Cpd1 concentration (sheet Fig S5a) ([1]; time 60, dose head 10): 0.05 and 0.06 and 0.04 | Cpd1 concentration (sheet Fig S5b) ([1]; time 60, dose head 10): 0.04 and 0.05 and 0.06 | effect on [Ca2+]i in quiescent fibers [2]: reduced [Ca^2+]i in R163C fibers in a dose-dependent manner to the level of WT fibers | Mn2+ quench rate [3]: the same as that in untreated WT fibers | IC50 [4]: 12 nM | water solubility ([5]; free acid): virtually water insoluble | solubility in normal saline compared to dantrolene ([5]; normal saline): 34 fold | solubility at 48 h ([5]; normal saline (0.9% NaCl), 25 °C, saline or isotonic, thermodynamic from solid): 849 ± 58 µg/mL (≈ 2460 µM)
